System: Huntingtin protein (HTT)
Test: Endogenous Huntingtin Protein Assay (MSD electrochemiluminescence ELISA; MW1 or MAB2166 capture, #5656S detection)
Assay type: cell-based, human
Experimental: The Endogenous Huntingtin Protein assay used in Example 2 was developed using the Best Pair antibodies identified in Table 2, providing highly sensitive, high-throughput detection assays for polyglutamine-expanded (mHTT) and total human HTT in multiple cell systems. The platform used for the assay is the ELISA-based Meso Scale Discovery (MSD) electrochemiluminescence assay platform.
Meso Scale Discovery (MSD) 96-well or 384-well plates were coated overnight at 4° C. with MW1 (expanded polyglutamine) or MAB2166 monoclonal antibody (for capture) at a concentration of 1 μg/mL in PBS (30 μL per well). Plates were then washed three times with 300 μL wash buffer (0.05% Tween-20 in PBS) and blocked (100 μL blocking buffer; 5% BSA in PBS) for 4-5 hours at room temperature with rotational shaking and then washed three times with wash buffer.
Samples (25 μL) were transferred to the antibody-coated MSD plate and incubated overnight at 4° C. After removal of the lysates, the plate was washed three times with wash buffer, and 25 μL of #5656S (Cell signaling; rabbit monoclonal) secondary antibody (diluted to 0.25 μg/mL in 0.05% Tween-20 in blocking buffer) was added to each well and incubated with shaking for 1 Hour at room temperature. Following incubation with the secondary antibody, the wells were rinsed with wash buffer after which 25 μL of goat anti-rabbit SULFO TAG secondary detection antibody (required aspect of the MSD system) (diluted to 0.25 μg/mL in 0.05% Tween-20 in blocking buffer) was added to each well and incubated with shaking for 1 hour at room temperature. After rinsing three times with wash buffer, 150 μL of read buffer T with surfactant (MSD) were added to each empty well, and the plate was imaged on a SI 6000 imager (MSD) according to manufacturers' instructions provided for 96- or 384-well plates.

Compound | IC50
CN(c1nnc(Oc2cccc(-c3cn[nH]c3)c2)s1)C1CC(C)(C)NC(C)(C)C1 [Cpd 462, N,2,2,6,6-pentamethyl-N-{5-[3-(1H-pyrazol-4-yl)phenoxy]-1,3,4-thiadiazol-2-yl}piperidin-4-amine] | 3 to 9 µM
CN(c1nnc(Oc2ccc(-c3cn[nH]c3)cc2)s1)C1CC(C)(C)NC(C)(C)C1 [Cpd 463, N,2,2,6,6-pentamethyl-N-{5-[4-(1H-pyrazol-4-yl)phenoxy]-1,3,4-thiadiazol-2-yl}piperidin-4-amine] | 3 to 9 µM
CC1(C)CC(Oc2ccc(-c3ccc(-c4cn[nH]c4)cc3C(F)F)nn2)CC(C)(C)N1 [Cpd 464, 3-[2-(difluoromethyl)-4-(1H-pyrazol-4-yl)phenyl]-6-[(2,2,6,6-tetramethylpiperidin-4-yl)oxy]pyridazine] | 3 to 9 µM
CN(c1ccc(-c2ccc(-c3cn[nH]c3)cc2C(F)F)nn1)C1CC(C)(C)NC(C)(C)C1 [Cpd 465, 6-[2-(difluoromethyl)-4-(1H-pyrazol-4-yl)phenyl]-N-methyl-N-(2,2,6,6-tetramethylpiperidin-4-yl)pyridazin-3-amine] | 3 to 9 µM

Reference: US11638706B2, “Methods for treating Huntington's disease” (PTC Therapeutics, Inc., priority 2015, dated 2023)
